Reference: article PMC7316778 (Nature Communications, 2020)
Where “and” joins values, the source holds several entries; their conditions need not be identical. Equal values may be shown once. Read-outs that look alike come from different tables or passages of the source.

Columns and labels:
Assay in all cases: SelectScreen kinase assay
CSNK1G3 (CK1 gamma 3) = CSNK1G3 (CK1 gamma 3) (Homo sapiens, UniProt Q9Y6M4)
Procedure: (§1) Selectivity profiling assays were performed by the Invitrogen SelectScreen™ Services. […] The concentration of ATP was selected to be equal to the KM, unless indicated otherwise.

MYLK4 = molecular target: T1, MYLK4 (Homo sapiens, UniProt Q86YV6)
T1 sequence (Q86YV6 1-388): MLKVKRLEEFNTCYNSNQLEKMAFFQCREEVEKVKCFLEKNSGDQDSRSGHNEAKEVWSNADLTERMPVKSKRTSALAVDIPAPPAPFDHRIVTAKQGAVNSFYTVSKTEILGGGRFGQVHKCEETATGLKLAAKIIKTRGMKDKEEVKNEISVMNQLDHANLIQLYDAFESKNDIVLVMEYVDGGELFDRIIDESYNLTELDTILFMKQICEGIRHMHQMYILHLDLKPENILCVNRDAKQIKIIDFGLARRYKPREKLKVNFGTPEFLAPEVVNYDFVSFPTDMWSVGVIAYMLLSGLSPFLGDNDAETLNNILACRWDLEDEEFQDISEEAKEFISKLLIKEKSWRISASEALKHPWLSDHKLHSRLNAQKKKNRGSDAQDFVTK
Procedure: as §1

CAMK1G (CAMKI gamma) = CAMK1G (CAMKI gamma) (Homo sapiens, UniProt Q96NX5); details: for Inhibition at 1 µM (%): CAMK1G (CAMKI gamma), ZLYTE, ATP Km app
Procedure: as §1

BLK = BLK (Homo sapiens, UniProt P51451)
Procedure: as §1

RPS6KA1 (RSK1) = RPS6KA1 (RSK1) (Homo sapiens, UniProt Q15418)
Procedure: as §1

NTRK3 (TRKC) = NTRK3 (TRKC) (Homo sapiens, UniProt Q16288)
Procedure: as §1

NEK4 = NEK4 (Homo sapiens, UniProt P51957)
Procedure: as §1

CDK13/cyclin K = CDK13/cyclin K (Homo sapiens, UniProt Q14004); format: biochemical
EPHA8 = EPHA8 (Homo sapiens, UniProt P29322)
Procedure: as §1

CDK6/cyclin D1 = CDK6/cyclin D1 (Homo sapiens, UniProt Q00534); details: 1 h, 1 μM WEL028, 1 h preincubation
Procedure: as §1

LYN B = LYN B (Homo sapiens, UniProt P07948); details: for Inhibition at 1 µM (%): LYN B, ZLYTE, ATP Km app
Procedure: as §1

TXK = TXK (Homo sapiens, UniProt P42681)
Procedure: as §1

PLK3 = PLK3 (Homo sapiens, UniProt Q9H4B4)
Procedure: as §1

CAMKK1 (CAMKKA) = CAMKK1 (CAMKKA) (Homo sapiens, UniProt Q8N5S9)
Procedure: as §1

SRMS (Srm) = SRMS (Srm) (Homo sapiens, UniProt Q9H3Y6)
Procedure: as §1

DAPK1 = DAPK1 (Homo sapiens, UniProt P53355)
Procedure: as §1

MAPK10 (JNK3) = MAPK10 (JNK3) (Homo sapiens, UniProt P53779)
Procedure: as §1

[1] = 1 h, 1 μM WEL028, 1 h preincubation
[2] = 1 µM, ZLYTE, ATP Km app, listed as WEL028, 1 µM
[3] = read-out: Inhibition at 1 µM (%), 1 µM, ZLYTE, ATP Km app

RPS6KA1 (RSK1), sequence (Q15418 whole entry): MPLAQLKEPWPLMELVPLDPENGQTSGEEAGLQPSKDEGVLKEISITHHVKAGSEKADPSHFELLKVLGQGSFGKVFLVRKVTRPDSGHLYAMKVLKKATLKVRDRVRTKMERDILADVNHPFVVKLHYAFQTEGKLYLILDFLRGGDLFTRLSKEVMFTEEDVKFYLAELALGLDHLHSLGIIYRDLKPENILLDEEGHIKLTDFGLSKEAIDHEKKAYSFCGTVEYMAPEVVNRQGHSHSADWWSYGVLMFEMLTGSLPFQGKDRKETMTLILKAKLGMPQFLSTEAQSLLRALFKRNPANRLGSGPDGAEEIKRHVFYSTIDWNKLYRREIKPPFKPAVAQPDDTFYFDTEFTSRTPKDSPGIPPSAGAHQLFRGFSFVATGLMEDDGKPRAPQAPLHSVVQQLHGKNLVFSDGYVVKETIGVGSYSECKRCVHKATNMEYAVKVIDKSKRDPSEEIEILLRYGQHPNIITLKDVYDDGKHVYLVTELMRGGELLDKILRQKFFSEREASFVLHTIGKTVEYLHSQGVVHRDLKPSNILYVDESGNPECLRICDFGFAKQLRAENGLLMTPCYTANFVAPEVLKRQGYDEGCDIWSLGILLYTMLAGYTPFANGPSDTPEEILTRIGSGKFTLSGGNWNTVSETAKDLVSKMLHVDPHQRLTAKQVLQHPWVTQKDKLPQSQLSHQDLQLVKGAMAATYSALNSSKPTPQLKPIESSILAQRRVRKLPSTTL
CDK13/cyclin K, sequence (Q14004 whole entry): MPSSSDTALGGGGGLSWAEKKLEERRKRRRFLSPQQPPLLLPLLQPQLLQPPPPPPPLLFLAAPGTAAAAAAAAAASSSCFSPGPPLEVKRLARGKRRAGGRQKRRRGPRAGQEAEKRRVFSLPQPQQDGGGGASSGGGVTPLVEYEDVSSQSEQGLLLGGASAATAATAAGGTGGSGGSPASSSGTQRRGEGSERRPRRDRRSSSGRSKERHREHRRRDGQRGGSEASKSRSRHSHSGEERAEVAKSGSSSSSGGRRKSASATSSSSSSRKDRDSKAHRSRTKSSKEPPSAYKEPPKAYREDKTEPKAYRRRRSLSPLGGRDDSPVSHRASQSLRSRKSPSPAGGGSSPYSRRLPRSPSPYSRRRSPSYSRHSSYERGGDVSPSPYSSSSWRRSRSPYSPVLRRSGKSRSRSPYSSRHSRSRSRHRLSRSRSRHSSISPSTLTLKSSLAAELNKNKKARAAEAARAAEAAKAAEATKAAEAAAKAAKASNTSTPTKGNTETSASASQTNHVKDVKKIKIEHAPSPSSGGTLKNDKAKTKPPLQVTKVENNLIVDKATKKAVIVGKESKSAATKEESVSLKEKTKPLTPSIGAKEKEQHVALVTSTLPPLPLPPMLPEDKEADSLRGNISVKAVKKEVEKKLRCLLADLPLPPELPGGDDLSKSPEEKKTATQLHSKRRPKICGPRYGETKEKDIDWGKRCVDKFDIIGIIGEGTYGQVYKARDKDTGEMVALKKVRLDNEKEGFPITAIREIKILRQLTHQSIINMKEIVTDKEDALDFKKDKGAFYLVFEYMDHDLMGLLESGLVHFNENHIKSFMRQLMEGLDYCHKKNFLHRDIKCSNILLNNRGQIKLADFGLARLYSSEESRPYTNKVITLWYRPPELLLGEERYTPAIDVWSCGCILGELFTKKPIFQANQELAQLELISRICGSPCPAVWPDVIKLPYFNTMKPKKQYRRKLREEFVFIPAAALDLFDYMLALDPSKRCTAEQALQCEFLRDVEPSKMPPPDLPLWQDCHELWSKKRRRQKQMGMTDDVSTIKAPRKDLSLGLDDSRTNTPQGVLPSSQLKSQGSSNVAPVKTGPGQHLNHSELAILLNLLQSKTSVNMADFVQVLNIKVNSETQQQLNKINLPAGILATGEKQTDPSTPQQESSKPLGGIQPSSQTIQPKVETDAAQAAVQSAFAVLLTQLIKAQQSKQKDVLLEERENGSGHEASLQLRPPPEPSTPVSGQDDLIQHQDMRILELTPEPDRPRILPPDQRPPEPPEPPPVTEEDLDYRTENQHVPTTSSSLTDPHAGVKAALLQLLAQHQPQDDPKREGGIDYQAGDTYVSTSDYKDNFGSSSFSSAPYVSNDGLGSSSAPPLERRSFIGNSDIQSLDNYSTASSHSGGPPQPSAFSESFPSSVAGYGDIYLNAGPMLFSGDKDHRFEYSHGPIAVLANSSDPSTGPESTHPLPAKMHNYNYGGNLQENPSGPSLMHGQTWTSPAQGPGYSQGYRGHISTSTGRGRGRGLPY
CDK13/cyclin K, sequence (O75909 whole entry partner): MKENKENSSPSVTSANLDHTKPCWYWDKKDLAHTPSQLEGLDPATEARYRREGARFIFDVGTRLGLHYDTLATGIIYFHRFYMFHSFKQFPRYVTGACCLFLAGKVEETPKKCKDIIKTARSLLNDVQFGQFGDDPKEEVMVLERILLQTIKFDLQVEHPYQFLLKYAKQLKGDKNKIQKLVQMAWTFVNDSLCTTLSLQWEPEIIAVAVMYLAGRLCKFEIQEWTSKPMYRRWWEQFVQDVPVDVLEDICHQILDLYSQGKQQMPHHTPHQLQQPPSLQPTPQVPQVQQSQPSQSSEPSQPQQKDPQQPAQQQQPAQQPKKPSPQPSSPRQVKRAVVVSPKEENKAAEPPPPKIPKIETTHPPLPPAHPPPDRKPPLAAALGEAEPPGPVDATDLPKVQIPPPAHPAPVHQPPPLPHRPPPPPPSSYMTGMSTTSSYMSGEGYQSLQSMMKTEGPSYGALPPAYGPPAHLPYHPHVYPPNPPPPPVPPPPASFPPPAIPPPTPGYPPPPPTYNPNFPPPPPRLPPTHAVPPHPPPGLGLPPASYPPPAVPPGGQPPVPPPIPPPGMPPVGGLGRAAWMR
DAPK1, sequence (P53355 whole entry): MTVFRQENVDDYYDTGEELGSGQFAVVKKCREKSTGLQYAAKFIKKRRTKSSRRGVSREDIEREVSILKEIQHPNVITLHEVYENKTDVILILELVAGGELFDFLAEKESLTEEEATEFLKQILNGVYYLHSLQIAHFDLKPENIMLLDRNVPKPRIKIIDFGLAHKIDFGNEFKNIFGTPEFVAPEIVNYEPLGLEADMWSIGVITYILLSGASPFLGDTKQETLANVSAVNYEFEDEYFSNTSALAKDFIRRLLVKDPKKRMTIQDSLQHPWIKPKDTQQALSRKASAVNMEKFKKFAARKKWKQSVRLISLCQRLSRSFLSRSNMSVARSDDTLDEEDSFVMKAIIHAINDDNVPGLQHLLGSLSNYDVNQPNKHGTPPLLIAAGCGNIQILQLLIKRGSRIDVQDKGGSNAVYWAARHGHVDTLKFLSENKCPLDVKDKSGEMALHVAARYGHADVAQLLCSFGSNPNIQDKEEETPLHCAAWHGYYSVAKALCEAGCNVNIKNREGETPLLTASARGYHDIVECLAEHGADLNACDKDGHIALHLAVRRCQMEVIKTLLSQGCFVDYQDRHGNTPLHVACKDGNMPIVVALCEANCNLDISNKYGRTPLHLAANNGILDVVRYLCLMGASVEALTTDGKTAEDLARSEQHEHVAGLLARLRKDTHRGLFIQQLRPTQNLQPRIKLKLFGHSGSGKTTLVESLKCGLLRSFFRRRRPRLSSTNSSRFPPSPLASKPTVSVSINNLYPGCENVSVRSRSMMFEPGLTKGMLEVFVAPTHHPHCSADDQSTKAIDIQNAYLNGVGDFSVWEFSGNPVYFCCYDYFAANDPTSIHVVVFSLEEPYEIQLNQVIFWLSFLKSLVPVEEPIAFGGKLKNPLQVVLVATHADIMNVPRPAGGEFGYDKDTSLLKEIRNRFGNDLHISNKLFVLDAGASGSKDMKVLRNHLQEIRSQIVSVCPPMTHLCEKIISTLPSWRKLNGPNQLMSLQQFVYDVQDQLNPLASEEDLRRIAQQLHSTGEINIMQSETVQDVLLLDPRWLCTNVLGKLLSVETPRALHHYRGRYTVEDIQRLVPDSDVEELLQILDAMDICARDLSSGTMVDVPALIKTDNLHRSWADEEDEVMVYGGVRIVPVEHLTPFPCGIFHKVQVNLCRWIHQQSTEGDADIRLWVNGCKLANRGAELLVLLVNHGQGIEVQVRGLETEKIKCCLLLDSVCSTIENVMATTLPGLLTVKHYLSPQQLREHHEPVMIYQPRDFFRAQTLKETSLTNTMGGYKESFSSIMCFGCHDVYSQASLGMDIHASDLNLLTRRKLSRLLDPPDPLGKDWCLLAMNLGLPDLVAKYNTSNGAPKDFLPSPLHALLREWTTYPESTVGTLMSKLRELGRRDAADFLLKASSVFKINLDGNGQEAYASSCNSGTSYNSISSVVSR
PLK3, sequence (Q9H4B4 whole entry): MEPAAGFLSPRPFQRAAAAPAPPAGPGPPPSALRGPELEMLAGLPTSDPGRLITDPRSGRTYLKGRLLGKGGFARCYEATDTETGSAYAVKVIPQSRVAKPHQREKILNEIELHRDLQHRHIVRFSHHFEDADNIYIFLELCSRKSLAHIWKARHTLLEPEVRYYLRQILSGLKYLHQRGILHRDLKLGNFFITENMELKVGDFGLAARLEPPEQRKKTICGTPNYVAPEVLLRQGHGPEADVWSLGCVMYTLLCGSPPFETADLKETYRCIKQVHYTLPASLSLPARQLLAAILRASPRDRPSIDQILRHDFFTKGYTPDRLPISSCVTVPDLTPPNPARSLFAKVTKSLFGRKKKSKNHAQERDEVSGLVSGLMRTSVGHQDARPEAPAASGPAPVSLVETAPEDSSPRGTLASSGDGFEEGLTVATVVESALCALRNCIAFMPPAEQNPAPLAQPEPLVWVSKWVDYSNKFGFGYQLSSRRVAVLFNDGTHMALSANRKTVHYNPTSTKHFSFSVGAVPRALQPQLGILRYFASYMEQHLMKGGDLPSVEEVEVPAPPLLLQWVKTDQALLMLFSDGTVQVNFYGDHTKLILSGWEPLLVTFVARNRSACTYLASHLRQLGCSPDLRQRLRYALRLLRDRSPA

SMILES: C#CCOc1ccc(Nc2ncc(Cl)c(Nc3ccccc3NC(=O)C=C)n2)c(OC)c1 [Compound 6]
- Inhibition (%) (CSNK1G3 (CK1 gamma 3); 1 μM WEL028, 1 h preincubation): 0%
- Inhibition at 1 µM (%) (CSNK1G3 (CK1 gamma 3); CSNK1G3 (CK1 gamma 3), 1 µM, ZLYTE, ATP Km app, listed as WEL028, 1 µM): 3% and -2%
- inhibition at 1 µM (MYLK4; [1]): 10%
- Inhibition at 1 µM (%) (MYLK4; MYLK4, 1 µM, LanthaScreen Binding, listed as WEL028, 1 µM): 14%
- inhibition at 1 µM (MYLK4; read-out: Inhibition at 1 µM (%), MYLK4, 1 µM, LanthaScreen Binding): 7%
- inhibition at 1 µM (CAMK1G (CAMKI gamma); [1]): 2%
- Inhibition at 1 µM (%) (CAMK1G (CAMKI gamma)): 3%
- Inhibition at 1 µM (%) (CAMK1G (CAMKI gamma); listed as WEL028, 1 µM): 1%
- inhibition at 1 µM (BLK; [1]): 0%
- Inhibition at 1 µM (%) (BLK; BLK, 1 µM, ZLYTE, ATP Km app, listed as WEL028, 1 µM): 4% and -5%
- Inhibition at 1 µM (%) (RPS6KA1 (RSK1); [2]): 0% and 10%
- inhibition at 1 µM (RPS6KA1 (RSK1); [1]): 5%
- inhibition at 1 µM (NTRK3 (TRKC); [1]): 4%
- Inhibition at 1 µM (%) (NTRK3 (TRKC); NTRK3 (TRKC), 1 µM, ZLYTE, ATP Km app, listed as WEL028, 1 µM): 0% and 8%
- inhibition at 1 µM (NEK4; [1]): 4%
- Inhibition at 1 µM (%) (NEK4; NEK4, 1 µM, ZLYTE, ATP Km app, listed as WEL028, 1 µM): 5%
- inhibition at 1 µM (NEK4; read-out: Inhibition at 1 µM (%), NEK4, 1 µM, ZLYTE, ATP Km app): 4%
- Inhibition (%) (CDK13/cyclin K; 1 μM WEL028, 1 h preincubation): -3%
- Inhibition at 1 µM (%) (CDK13/cyclin K; CDK13/cyclin K, 1 µM, LanthaScreen Binding, listed as WEL028, 1 µM): -1% and -5%
- inhibition at 1 µM (EPHA8; 1 h): -7%
- inhibition at 1 µM (EPHA8; read-out: Inhibition at 1 µM (%)): -7%
- inhibition at 1 µM (CDK6/cyclin D1): -6%
- inhibition at 1 µM (LYN B; [1]): 1%
- Inhibition at 1 µM (%) (LYN B): 3%
- Inhibition at 1 µM (%) (LYN B; listed as WEL028, 1 µM): 0%
- inhibition at 1 µM (TXK; [1]): 7%
- inhibition at 1 µM (TXK; [3]): 8%
- inhibition at 1 µM (PLK3; [1]): -1%
- Inhibition at 1 µM (%) (PLK3; PLK3, 1 µM, ZLYTE, ATP Km app, listed as WEL028, 1 µM): 2% and -3%
- inhibition at 1 µM (CAMKK1 (CAMKKA); [1]): 22%
- Inhibition at 1 µM (%) (CAMKK1 (CAMKKA); CAMKK1 (CAMKKA), 1 µM, LanthaScreen Binding, listed as WEL028, 1 µM): 24%
- inhibition at 1 µM (CAMKK1 (CAMKKA); read-out: Inhibition at 1 µM (%), CAMKK1 (CAMKKA), 1 µM, LanthaScreen Binding): 20%
- Inhibition at 1 µM (%) (SRMS (Srm); [2]): 8%
- inhibition at 1 µM (SRMS (Srm); [1]): 7%
- inhibition at 1 µM (SRMS (Srm); [3]): 6%
- inhibition at 1 µM (DAPK1; [1]): 12%
- Inhibition at 1 µM (%) (DAPK1; DAPK1, 1 µM, Adapta, ATP Km app, listed as WEL028, 1 µM): 13%
- inhibition at 1 µM (DAPK1; read-out: Inhibition at 1 µM (%), DAPK1, 1 µM, Adapta, ATP Km app): 12%
- Inhibition (%) (MAPK10 (JNK3); 1 μM WEL028, 1 h preincubation): -7%
- Inhibition at 1 µM (%) (MAPK10 (JNK3); MAPK10 (JNK3), 1 µM, ZLYTE, ATP 100): -14%
